Tested on: keloid
Assay: Irritation at the keloid site following application of capsaicin
Type: in vivo, human
Conditions: topical, rubbed on the keloid; Capzasin HP 0.1% capsaicin
From the text: In an embodiment, a method of treating or managing a keloid includes firstly removing flurandrenolide tape (or CORDRAN® (flurandrenolide) tape) by peeling it off the keloid and secondly, cleaning the keloid with water and soap, and then drying the keloid with a cloth or a paper towel. After the keloid is dried, graphites ointment is applied in a manner that includes completely or partially covering the keloid with the graphites ointment. Graphites 6C ointment is available in the open market, for example, sold on the interne by a number of companies such as Pomade, Nelson, Boiron, or SBL. […] In an aspect of the method of treatment, witch hazel ointment is applied to the keloid evenly on the keloid either separately or together with graphites. Witch hazel (Hamamelis virginiana) is available in the open market as a cream, lotion ointment or liquid. […] The Hamamelis ointment is allowed to be absorbed by the keloid. In an embodiment, capsaicin cream or ointment is applied to the keloid. Capsaicin, 8-Methyl-N-vanillyl-trans-6-nonenamide) (CH3)2CHCH═CH(CH2)4CONHCH2C6H3-4-(OH)-3—(OCH3)) is the active composition or mixture of chili peppers, which are plants belonging to the genus Capsicum. Capsaicin may be obtained over-the-counter as for example, Capzasin HP 0.1% capsaicin (brand name CHATTEM Registered Trade mark, by Chattem Inc., TN). […]

## COc1cc(CNC(=O)CCCC/C=C/C(C)C)ccc1O [Capsaicin, 8-Methyl-N-vanillyl-trans-6-nonenamide]
  Period of intense irritation or pain at the site of the keloid following application: about 30 minutes
